Results from patent US8835472B2, “Compounds, pharmaceutical compositions and uses thereof” (Boehringer Ingelheim International GmbH, priority 2010, dated 2014).

Each compound was assayed against human ACC2 (Homo sapiens (Human), UniProt O00763) (assay: ACC2 assay, spectrophotometric 384 well assay (NADH-linked, coupled lactate dehydrogenase/pyruvate kinase reaction)). Conditions: hACC2 construct lacking the 128 N-terminal amino acids; 25° C., 340 nm over 15 minutes.
Assay type: biochemical
Method in brief: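 N-terminally truncated human ACC2 (lacking 128 residues) expressed in insect cells; coupled PK/LDH read-out of ADP as NADH loss at 340 nm, 15 min, 25 °C. Tris pH 7.5 with citrate and KHCO3; 200 μM acetyl-CoA, 500 μM ATP, 1% DMSO.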

Chain of human ACC2 (O00763 129-2458): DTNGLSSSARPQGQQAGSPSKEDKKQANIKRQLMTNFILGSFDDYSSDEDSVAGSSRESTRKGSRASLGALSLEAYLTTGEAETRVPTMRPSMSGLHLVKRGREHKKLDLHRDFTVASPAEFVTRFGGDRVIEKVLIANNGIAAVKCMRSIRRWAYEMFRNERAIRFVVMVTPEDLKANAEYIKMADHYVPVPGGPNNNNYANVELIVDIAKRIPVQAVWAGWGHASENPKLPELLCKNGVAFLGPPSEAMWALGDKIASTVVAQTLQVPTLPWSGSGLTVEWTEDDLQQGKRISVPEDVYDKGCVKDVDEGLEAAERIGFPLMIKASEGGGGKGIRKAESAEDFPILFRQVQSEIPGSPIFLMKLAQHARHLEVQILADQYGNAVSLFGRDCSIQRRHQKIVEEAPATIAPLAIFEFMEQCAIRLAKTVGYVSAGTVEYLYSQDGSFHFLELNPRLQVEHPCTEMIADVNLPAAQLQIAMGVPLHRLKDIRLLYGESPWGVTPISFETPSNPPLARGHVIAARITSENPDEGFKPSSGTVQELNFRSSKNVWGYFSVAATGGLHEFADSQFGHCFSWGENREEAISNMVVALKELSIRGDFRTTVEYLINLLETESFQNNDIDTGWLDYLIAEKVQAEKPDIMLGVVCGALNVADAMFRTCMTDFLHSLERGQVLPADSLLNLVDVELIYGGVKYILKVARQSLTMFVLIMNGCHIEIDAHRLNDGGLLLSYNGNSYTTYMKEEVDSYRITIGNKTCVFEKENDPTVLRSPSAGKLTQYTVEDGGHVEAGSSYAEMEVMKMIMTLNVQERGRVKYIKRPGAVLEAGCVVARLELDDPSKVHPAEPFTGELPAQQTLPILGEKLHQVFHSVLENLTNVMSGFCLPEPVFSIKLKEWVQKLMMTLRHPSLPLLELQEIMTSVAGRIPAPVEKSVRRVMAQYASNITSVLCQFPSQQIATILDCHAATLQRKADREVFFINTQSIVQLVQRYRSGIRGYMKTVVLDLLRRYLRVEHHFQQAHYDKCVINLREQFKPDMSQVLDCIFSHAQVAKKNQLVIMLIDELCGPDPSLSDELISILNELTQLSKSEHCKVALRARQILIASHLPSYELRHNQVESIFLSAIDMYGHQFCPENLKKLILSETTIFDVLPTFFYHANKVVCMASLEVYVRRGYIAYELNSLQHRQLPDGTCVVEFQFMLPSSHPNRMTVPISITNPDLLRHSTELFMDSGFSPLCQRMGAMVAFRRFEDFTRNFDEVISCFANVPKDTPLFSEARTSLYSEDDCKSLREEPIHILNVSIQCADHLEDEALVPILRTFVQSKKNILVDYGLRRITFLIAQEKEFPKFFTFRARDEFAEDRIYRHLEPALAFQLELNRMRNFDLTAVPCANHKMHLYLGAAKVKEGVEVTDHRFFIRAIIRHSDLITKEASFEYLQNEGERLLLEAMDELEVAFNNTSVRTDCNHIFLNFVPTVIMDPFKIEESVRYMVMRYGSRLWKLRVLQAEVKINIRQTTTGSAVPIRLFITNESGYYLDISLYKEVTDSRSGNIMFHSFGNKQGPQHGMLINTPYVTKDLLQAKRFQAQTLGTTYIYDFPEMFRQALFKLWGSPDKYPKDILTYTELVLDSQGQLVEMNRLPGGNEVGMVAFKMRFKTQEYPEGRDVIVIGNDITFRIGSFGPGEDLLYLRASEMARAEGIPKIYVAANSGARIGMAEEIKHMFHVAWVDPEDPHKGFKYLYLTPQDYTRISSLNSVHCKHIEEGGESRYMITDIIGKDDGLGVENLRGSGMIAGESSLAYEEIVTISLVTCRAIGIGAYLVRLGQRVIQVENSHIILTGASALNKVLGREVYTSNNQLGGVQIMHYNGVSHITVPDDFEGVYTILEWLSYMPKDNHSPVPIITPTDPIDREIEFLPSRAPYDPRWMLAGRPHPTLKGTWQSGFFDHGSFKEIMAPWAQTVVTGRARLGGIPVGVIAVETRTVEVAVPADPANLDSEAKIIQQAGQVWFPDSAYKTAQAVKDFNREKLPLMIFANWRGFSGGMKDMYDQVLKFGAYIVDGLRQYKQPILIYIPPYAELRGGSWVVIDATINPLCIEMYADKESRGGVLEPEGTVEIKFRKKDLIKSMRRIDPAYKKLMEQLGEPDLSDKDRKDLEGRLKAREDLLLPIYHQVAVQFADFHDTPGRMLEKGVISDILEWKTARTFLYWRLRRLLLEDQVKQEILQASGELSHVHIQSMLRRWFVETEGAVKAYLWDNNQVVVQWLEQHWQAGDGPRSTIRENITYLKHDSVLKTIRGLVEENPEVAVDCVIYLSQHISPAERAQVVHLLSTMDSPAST

Row | SMILES | IC50 [nM]
1 | CCCOc1ncc(C#Cc2ccc(CC(C)NC(=O)OC)cc2)cn1 (stereo not shown) [Example 12.26] | 1000
2 | COC(=O)NC(C)Cc1ccc(C#Cc2cnc(Oc3ccccc3)nc2)cc1 (stereo not shown) [Example 12.27] | 860
3 | COC(=O)NC(C)Cc1ccc(C#Cc2cnc(OC(C)C)nc2)cc1 (stereo not shown) [Example 12.28] | 1100
4 | CC(Cc1ccc(C#Cc2cnc(OC3CCC3)nc2)cc1)NC(=O)N(C)C (stereo not shown) [Example 12.29] | 70
5 | CCCOc1ncc(C#Cc2ccc(CC(C)NC(=O)N(C)C)cc2)cn1 (stereo not shown) [Example 12.30] | 190
6 | CC(=O)NC(C)Cc1ccc(C#Cc2cnc(OCCF)nc2)cc1 (stereo not shown) [Example 12.31] | 1100
7 | CC(=O)NC(C)Cc1ccc(C#Cc2cnc(OCCc3ccccc3)nc2)cc1 (stereo not shown) [Example 12.32] | 320
8 | CC(=O)NC(C)Cc1ccc(C#Cc2cnc(OCCC3CC3)nc2)cc1 (stereo not shown) [Example 12.33] | 320
9 | CCCCOc1ncc(C#Cc2ccc(CC(C)NC(C)=O)cc2)cn1 (stereo not shown) [Example 12.34] | 280
10 | CC(=O)NC(C)Cc1ccc(C#Cc2cnc(OC(C)c3ccncc3)nc2)cc1 (stereo not shown) [Example 12.35] | 2300
11 | CC(=O)NC(C)Cc1ccc(C#Cc2cnc(OCc3cncs3)nc2)cc1 (stereo not shown) [Example 12.36] | 1500
12 | CCC(COC)Oc1ncc(C#Cc2ccc(CC(C)NC(C)=O)cc2)cn1 (stereo not shown) [Example 12.37] | 1100
13 | CC(=O)NC(C)Cc1ccc(C#Cc2cnc(OC(C)C(F)(F)F)nc2)cc1 (stereo not shown) [Example 12.38] | 260
14 | CC(=O)NC(C)Cc1ccc(C#Cc2cnc(Oc3ccc4cn[nH]c4c3)nc2)cc1 (stereo not shown) [Example 12.39] | 3200
15 | COc1ccc(Oc2ncc(C#Cc3ccc(CC(C)NC(C)=O)cc3)cn2)cn1 (stereo not shown) [Example 12.40] | 630
16 | CC(=O)NC(C)Cc1ccc(C#Cc2cnc(OC(C)CF)nc2)cc1 (stereo not shown) [Example 12.41] | 520
17 | CC(=O)NC(C)Cc1ccc(C#Cc2cnc(OC(C)CC(F)(F)F)nc2)cc1 (stereo not shown) [Example 12.42] | 350
18 | CC(=O)NC(C)Cc1ccc(C#Cc2cnc(OCC(C)(F)F)nc2)cc1 (stereo not shown) [Example 12.43] | 2600
19 | CC(=O)NC(C)Cc1ccc(C#Cc2cnc(OC(CF)CF)nc2)cc1 (stereo not shown) [Example 12.44] | 1000
20 | CC(=O)NC(C)Cc1ccc(C#Cc2cnc(OCC3CC3(F)F)nc2)cc1 (stereo not shown) [Example 12.45] | 180
21 | COc1ccccc1Oc1ncc(C#Cc2ccc(CC(C)NC(C)=O)cc2)cn1 (stereo not shown) [Example 12.46] | 1000
22 | CC(=O)NC(C)Cc1ccc(C#Cc2cnc(Oc3cccc(F)c3)nc2)cc1 (stereo not shown) [Example 12.47] | 130

Row | SMILES | IC50 [nM]
23 | CC(=O)NC(C)Cc1ccc(C#Cc2cnc(Oc3ccc(F)cc3)nc2)cc1 (stereo not shown) [Example 12.49] | 230
24 | COc1ccc(Oc2ncc(C#Cc3ccc(CC(C)NC(C)=O)cc3)cn2)cc1 (stereo not shown) [Example 12.50] | 530
25 | CC(=O)NC(C)Cc1ccc(C#Cc2cnc(Oc3cccnc3)nc2)cc1 (stereo not shown) [Example 12.51] | 1500
26 | CC(=O)NC(C)Cc1ccc(C#Cc2cnc(OC3Cc4ccccc4C3)nc2)cc1 (stereo not shown) [Example 12.52] | 430
27 | CC(=O)NC(C)Cc1ccc(C#Cc2cnc(OCc3ccccc3F)nc2)cc1 (stereo not shown) [Example 12.53] | 9000
28 | CC(=O)NC(C)Cc1ccc(C#Cc2cnc(OCc3cccc(F)c3)nc2)cc1 (stereo not shown) [Example 12.54] | 230
29 | CC(=O)NC(C)Cc1ccc(C#Cc2cnc(OCc3ccc(F)cc3)nc2)cc1 (stereo not shown) [Example 12.55] | 170
30 | CC(=O)NC(C)Cc1ccc(C#Cc2cnc(OCc3cccnc3)nc2)cc1 (stereo not shown) [Example 12.56] | 4900
31 | CC(=O)NC(C)Cc1ccc(C#Cc2cnc(OCc3ccccn3)nc2)cc1 (stereo not shown) [Example 12.57] | 1800
32 | C[C@H](NC(=O)C1CC1)c1ccc(C#Cc2cnc(OCC3CC3)nc2)cc1 [Example 12.58] | 4500
33 | CC(=O)N[C@@H](C)c1ccc(C#Cc2cnc(OCC3CC3)nc2)cc1 [Example 12.59] | 1600
34 | CC(=O)N[C@@H](C)c1ccc(C#Cc2cnc(OCc3ccccc3)nc2)cc1 [Example 12.60] | 540
35 | CC(=O)N[C@@H](C)c1ccc(C#Cc2cnc(OCc3ccoc3)nc2)cc1 [Example 12.61] | 790
36 | CC(=O)N[C@@H](C)c1ccc(C#Cc2cnc(OC3CCC3)nc2)cc1 [Example 12.62] | 240
37 | C[C@H](NC(=O)C1CC1)c1ccc(C#Cc2cnc(OCCC(F)(F)F)nc2)cc1 [Example 12.63] | 1100
38 | CC(=O)N[C@@H](C)c1ccc(C#Cc2cnc(OCCC(F)(F)F)nc2)cc1 [Example 12.64] | 550
39 | C[C@H](NC(=O)C1CC1)c1ccc(C#Cc2cnc(OC3CCC3)nc2)cc1 [Example 12.65] | 450
40 | CCOc1ncc(C#Cc2ccc([C@H](C)NC(=O)C3CC3)cc2)cn1 [Example 12.66] | 2100
41 | C[C@H](NC(=O)C1CC1)c1ccc(C#Cc2cnc(Oc3ccccc3)nc2)cc1 [Example 12.67] | 3900
42 | CC(=O)N[C@@H](C)c1ccc(C#Cc2cnc(Oc3ccccc3)nc2)cc1 [Example 12.68] | 980
43 | CCOc1ncc(C#Cc2ccc([C@H](C)NC(C)=O)cc2)cn1 [Example 12.69] | 2600
44 | COCCN(C)c1ncc(C#Cc2ccc(CC(C)NC(C)=O)cc2)cn1 (stereo not shown) [Example 13.1, N-(1-(4-((2-((2-Methoxyethyl)(methyl)amino)pyrimidin-5-yl)ethynyl)phenyl)propan-2-yl)acetamide] | 3200

Row | SMILES | IC50 [nM]
45 | CCCNc1ncc(C#Cc2ccc(CC(C)NC(C)=O)cc2)cn1 (stereo not shown) [Example 13.2] | 210
46 | CCN(C)c1ncc(C#Cc2ccc(CC(C)NC(C)=O)cc2)cn1 (stereo not shown) [Example 13.3] | 1000
47 | CC(=O)NC(C)Cc1ccc(C#Cc2cnc(NC(C)C)nc2)cc1 (stereo not shown) [Example 13.4] | 170
48 | COC(=O)CNc1ncc(C#Cc2ccc(CC(C)NC(C)=O)cc2)cn1 (stereo not shown) [Example 13.5] | 1400
49 | CC(=O)NC(C)Cc1ccc(C#Cc2cnc(NCc3ccccc3)nc2)cc1 (stereo not shown) [Example 13.6] | 100
50 | CC(=O)NC(C)Cc1ccc(C#Cc2cnc(N3CCCCC3)nc2)cc1 (stereo not shown) [Example 13.7] | 260
51 | CC(=O)NC(C)Cc1ccc(C#Cc2cnc(NC3CCCC3)nc2)cc1 (stereo not shown) [Example 13.8] | 220
52 | CC(=O)NC(C)Cc1ccc(C#Cc2cnc(NCC3CC3)nc2)cc1 (stereo not shown) [Example 13.10] | 450
53 | CC(=O)NC(C)Cc1ccc(C#Cc2cnc(NC(C)C(C)C)nc2)cc1 (stereo not shown) [Example 13.11] | 230
54 | CC(=O)NC(C)Cc1ccc(C#Cc2cnc(NC3CCC3)nc2)cc1 (stereo not shown) [Example 13.12] | 110
55 | CCNc1ncc(C#Cc2ccc(CC(C)NC(C)=O)cc2)cn1 (stereo not shown) [Example 13.13] | 230
56 | COCC(C)Nc1ncc(C#Cc2ccc(CC(C)NC(C)=O)cc2)cn1 (stereo not shown) [Example 13.14] | 1900
57 | CCCC(C)Nc1ncc(C#Cc2ccc(CC(C)NC(C)=O)cc2)cn1 (stereo not shown) [Example 13.15] | 160
58 | CC(=O)NC(C)Cc1ccc(C#Cc2cnc(N(C)C3CCCC3)nc2)cc1 (stereo not shown) [Example 13.16] | 190
59 | CC(=O)NC(C)Cc1ccc(C#Cc2cnc(NCC3CCC3)nc2)cc1 (stereo not shown) [Example 13.17] | 180
60 | CC(=O)NC(C)Cc1ccc(C#Cc2cnc(N3CC4CCCC4C3)nc2)cc1 (stereo not shown) [Example 13.18] | 130
61 | CC(=O)NC(C)Cc1ccc(C#Cc2cnc(NC3CCOC3)nc2)cc1 (stereo not shown) [Example 13.19] | 670
62 | CC(=O)NC(C)Cc1ccc(C#Cc2cnc(NCC(C)C)nc2)cc1 (stereo not shown) [Example 13.20] | 260
63 | CCC(C)N(C)c1ncc(C#Cc2ccc(CC(C)NC(C)=O)cc2)cn1 (stereo not shown) [Example 13.21] | 210
64 | CC(=O)NC(C)Cc1ccc(C#Cc2cnc(N3CCOCC3)nc2)cc1 (stereo not shown) [Example 13.22] | 730
65 | CCN(CC)c1ncc(C#Cc2ccc(CC(C)NC(C)=O)cc2)cn1 (stereo not shown) [Example 13.23] | 1200
66 | CC(C)Nc1ncc(C#Cc2ccc(CC(C)NC(=O)N(C)C)cc2)cn1 (stereo not shown) [Example 13.24] | 200

Row | SMILES | IC50 [nM]
67 | CCC(C)Nc1ncc(C#Cc2ccc(CC(C)NC(=O)N(C)C)cc2)cn1 (stereo not shown) [Example 13.25] | 220
68 | CCNc1ncc(C#Cc2ccc(CC(C)NC(=O)N(C)C)cc2)cn1 (stereo not shown) [Example 13.26] | 200
69 | CC(Cc1ccc(C#Cc2cnc(NC3CCC3)nc2)cc1)NC(=O)N(C)C (stereo not shown) [Example 13.27] | 120
70 | COC(=O)NC(C)Cc1ccc(C#Cc2cnc(NCc3ccncc3)nc2)cc1 (stereo not shown) [Example 13.28] | 3400
71 | COC(=O)NC(C)Cc1ccc(C#Cc2cnc(N3CCC4(CC4)C3)nc2)cc1 (stereo not shown) [Example 13.29] | 610
72 | COC(=O)NC(C)Cc1ccc(C#Cc2cnc(N3CC4CCCC4C3)nc2)cc1 (stereo not shown) [Example 13.30] | 360
73 | COC(=O)NC(C)Cc1ccc(C#Cc2cnc(NC3CCC3)nc2)cc1 (stereo not shown) [Example 13.31] | 500
74 | COC(=O)NC(C)Cc1ccc(C#Cc2cnc(N3CCCCC3)nc2)cc1 (stereo not shown) [Example 13.32] | 410
75 | COC(=O)NC(C)Cc1ccc(C#Cc2cnc(NCc3cccnc3)nc2)cc1 (stereo not shown) [Example 13.33] | 1800
76 | COC(=O)NC(C)Cc1ccc(C#Cc2cnc(N3CCCC3)nc2)cc1 (stereo not shown) [Example 13.34] | 4700
77 | COC(=O)NC(C)Cc1ccc(C#Cc2cnc(NC3CCCC3)nc2)cc1 (stereo not shown) [Example 13.35] | 290
78 | COC(=O)NC(C)Cc1ccc(C#Cc2cnc(NC3CC3)nc2)cc1 (stereo not shown) [Example 13.36] | 1600
79 | CC(Cc1ccc(C#Cc2cnc(NCc3ccncc3)nc2)cc1)NC(=O)C1CC1 (stereo not shown) [Example 13.37] | 2600
80 | COC(=O)NC(C)Cc1ccc(C#Cc2cnc(NC(C)C)nc2)cc1 (stereo not shown) [Example 13.38] | 690
81 | CCC(C)Nc1ncc(C#Cc2ccc(CC(C)NC(=O)OC)cc2)cn1 (stereo not shown) [Example 13.39] | 640
82 | COC(=O)NC(C)Cc1ccc(C#Cc2cnc(N3CCC3)nc2)cc1 (stereo not shown) [Example 13.40] | 2200
83 | CCNc1ncc(C#Cc2ccc(CC(C)NC(=O)OC)cc2)cn1 (stereo not shown) [Example 13.41] | 2400
84 | COC(=O)NC(C)Cc1ccc(C#Cc2cnc(NCCF)nc2)cc1 (stereo not shown) [Example 13.42] | 4500
85 | CC(Cc1ccc(C#Cc2cnc(N3CC4CCCC4C3)nc2)cc1)NC(=O)C1CC1 (stereo not shown) [Example 13.43] | 580
